Structures can show the parent of a compound that is named as a salt.
Legend:
Type in all cases: binding
[1] = target: T1, Recombinant human integrin αVβ5 (Homo sapiens, UniProt P06756+P18084); assay: Solid Phase Receptor Assay (SPRA) for αVβ5 function; conditions: plate-bound human vitronectin
T1 construct: purchased R&D Systems 2528-AV
Experimental: D. Solid Phase Receptor Assay (SPRA) for αVβ5 Function
(§1) Wells were washed 3 times with 150 μL TBS+ and then 150 μL of blocking buffer (TBS+ with 1% bovine serum albumin, Sigma A7906) was added. The plate was incubated for 1 hr at 37° C. and then washed 3× with TBS+ buffer. […] Compounds were diluted to 20 μM and then 1 μL was added to each well of the plate according to a standard template with each sample repeated in triplicate. After incubation for two hours at room temperature, the plate was washed 3× with 150 μL of TBS+ buffer. To each well, 50 μl of biotinylated anti-αV antibody (R&D Systems, BAF1219) at 0.5 μg/mL in TBS+/0.1% BSA at 0.5 μg/mL were added and the plate covered and incubated for 1 hr at room temperature. After washing the plate 3× with 150 μL of TBS+ buffer, 50 μL of streptavidin-conjugated horseradish peroxidase (R&D Systems, DY998) diluted in TBS+ blocking buffer were added to the wells and the plate incubated for 20 min at room temperature. The plate was washed 3× with TBS+ buffer followed by 50 μL of TMB substrate (Sigma T4444) added to each well in the dark and the plate incubated for 5 min at room temperature. 25 μL of 1.0 M phosphoric acid was added as a stop solution and the plates were read at 450 nm using a Spectramax plate reader.

[2] = target: T2, Recombinant human integrin αvβ1 (Homo sapiens, UniProt P05556+P06756); assay: Solid Phase Receptor Assay (SPRA) for αVβ1 function; conditions: plate-bound human fibronectin
T2 construct: purchased R&D Systems 6579-AV
T2 sequence (P06756 31-992 limits assumed): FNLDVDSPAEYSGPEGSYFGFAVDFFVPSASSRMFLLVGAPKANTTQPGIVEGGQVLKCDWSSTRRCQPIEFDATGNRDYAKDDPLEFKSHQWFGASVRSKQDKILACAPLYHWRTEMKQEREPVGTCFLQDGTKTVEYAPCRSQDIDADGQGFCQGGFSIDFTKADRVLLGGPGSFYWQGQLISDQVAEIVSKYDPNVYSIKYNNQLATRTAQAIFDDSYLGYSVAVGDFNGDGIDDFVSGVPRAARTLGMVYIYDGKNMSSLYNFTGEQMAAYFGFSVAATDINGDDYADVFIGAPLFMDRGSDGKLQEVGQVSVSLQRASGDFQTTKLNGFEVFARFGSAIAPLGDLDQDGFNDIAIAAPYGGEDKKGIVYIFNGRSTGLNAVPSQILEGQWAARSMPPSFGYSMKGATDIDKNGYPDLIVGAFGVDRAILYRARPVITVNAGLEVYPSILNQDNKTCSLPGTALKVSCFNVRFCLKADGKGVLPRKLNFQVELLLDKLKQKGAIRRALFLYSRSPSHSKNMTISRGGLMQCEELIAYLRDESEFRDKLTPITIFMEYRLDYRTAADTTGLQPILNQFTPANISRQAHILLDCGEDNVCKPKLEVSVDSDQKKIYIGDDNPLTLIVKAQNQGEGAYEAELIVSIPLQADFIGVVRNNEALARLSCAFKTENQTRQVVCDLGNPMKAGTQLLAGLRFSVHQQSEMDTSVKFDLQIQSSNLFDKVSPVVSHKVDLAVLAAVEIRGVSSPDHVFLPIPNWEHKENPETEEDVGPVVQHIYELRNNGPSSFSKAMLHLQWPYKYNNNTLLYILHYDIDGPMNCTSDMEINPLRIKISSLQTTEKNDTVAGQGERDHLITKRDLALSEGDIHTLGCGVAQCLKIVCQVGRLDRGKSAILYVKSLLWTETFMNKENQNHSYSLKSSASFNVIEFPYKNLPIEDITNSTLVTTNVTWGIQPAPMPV
T2 sequence (P05556 21-728 limits assumed): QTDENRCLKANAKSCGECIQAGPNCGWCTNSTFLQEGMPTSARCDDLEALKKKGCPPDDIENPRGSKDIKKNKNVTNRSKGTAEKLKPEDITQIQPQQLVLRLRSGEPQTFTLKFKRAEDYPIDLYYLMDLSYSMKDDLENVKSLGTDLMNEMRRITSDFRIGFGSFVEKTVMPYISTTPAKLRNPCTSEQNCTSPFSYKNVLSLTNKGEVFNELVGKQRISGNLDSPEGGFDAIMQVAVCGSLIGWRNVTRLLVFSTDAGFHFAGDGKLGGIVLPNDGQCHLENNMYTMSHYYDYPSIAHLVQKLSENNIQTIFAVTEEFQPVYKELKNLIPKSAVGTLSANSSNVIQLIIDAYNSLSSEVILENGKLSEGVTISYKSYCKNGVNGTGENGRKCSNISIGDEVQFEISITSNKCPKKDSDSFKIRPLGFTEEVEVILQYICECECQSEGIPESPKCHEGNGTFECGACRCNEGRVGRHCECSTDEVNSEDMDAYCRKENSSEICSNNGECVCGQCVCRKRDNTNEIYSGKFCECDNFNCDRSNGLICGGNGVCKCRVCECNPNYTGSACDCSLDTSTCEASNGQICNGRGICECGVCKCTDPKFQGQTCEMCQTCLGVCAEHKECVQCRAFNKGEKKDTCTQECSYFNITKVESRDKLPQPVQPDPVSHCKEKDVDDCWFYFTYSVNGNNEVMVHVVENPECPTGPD
Experimental: B. Solid Phase Receptor Assay (SPRA) for αVβ1 Function
as §1, with “μM and 1 μL” for “μM and then 1 μL”, “well, 50 μL of biotinylated” for “well, 50 μl of biotinylated”, “BAF1219) at 1 μg/mL in” for “BAF1219) at 0.5 μg/mL in”, “TBS+/0.1% BSA were added” for “TBS+/0.1% BSA at 0.5 μg/mL were added”, “TMB substrate (Sigma, T4444) added” for “TMB substrate (Sigma T4444) added”, “incubated for 25 min at” for “incubated for 5 min at”

[3] = target: T3, Recombinant human integrin α5β1 (Homo sapiens, UniProt P05556+P08648); assay: Solid Phase Receptor Assay (SPRA) for α5β1 function; conditions: plate-bound human fibronectin
T3 construct: purchased R&D Systems 3230-A5
T3 sequence (P08648 42-995 limits assumed): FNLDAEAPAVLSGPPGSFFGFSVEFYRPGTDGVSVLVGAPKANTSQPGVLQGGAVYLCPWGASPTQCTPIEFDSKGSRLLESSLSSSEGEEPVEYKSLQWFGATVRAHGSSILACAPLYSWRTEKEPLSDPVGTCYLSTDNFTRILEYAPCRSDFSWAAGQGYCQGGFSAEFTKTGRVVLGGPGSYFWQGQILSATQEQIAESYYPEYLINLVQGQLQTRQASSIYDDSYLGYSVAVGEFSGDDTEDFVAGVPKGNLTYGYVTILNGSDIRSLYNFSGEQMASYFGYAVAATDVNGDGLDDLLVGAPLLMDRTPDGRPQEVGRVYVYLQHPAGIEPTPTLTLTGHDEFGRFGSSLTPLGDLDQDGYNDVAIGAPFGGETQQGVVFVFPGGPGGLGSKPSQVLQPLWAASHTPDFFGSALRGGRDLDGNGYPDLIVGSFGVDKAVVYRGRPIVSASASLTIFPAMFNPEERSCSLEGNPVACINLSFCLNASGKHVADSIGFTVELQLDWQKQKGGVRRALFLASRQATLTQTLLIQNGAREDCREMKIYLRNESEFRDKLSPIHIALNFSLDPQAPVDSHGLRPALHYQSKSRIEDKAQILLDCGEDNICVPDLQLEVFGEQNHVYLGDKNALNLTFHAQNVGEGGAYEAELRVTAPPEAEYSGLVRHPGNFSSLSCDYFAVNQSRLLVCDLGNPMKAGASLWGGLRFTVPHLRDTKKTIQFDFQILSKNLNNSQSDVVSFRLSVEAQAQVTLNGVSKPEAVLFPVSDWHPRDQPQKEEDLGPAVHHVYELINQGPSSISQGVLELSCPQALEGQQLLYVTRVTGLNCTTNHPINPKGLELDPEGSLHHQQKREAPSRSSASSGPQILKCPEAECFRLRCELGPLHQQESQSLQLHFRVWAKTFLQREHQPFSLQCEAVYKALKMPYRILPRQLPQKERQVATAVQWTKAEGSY
T3 sequence (P05556 21-728 limits assumed): as the sequence (P05556 21-728 limits assumed) above
Experimental: A. Solid Phase Receptor Assay (SPRA) for α5β1 Function
Wells were washed 3 times with 150 μL TBS+ and then 150 μL of blocking buffer (TBS+ with 1% bovine serum albumin, Sigma A7906) was added. The plate was incubated for 1 hr at 37° C. and then washed 3× with TBS+ buffer. […] Compounds were diluted to 20 μM and then 1 μL was added to each well of the plate according to a standard template with each sample repeated in triplicate. After incubation for two hours at room temperature, the plate was washed 3× with 150 μL of TBS+ buffer. To each well, 50 μL of biotinylated anti-α5 antibody (R&D Systems, BAF1864) at 0.5 μg/mL in TBS+/0.1% BSA were added and the plate covered and incubated for 1 hr at room temperature. After washing the plate 3× with 150 μL of TBS+ buffer, 50 μL of streptavidin-conjugated horseradish peroxidase (R&D Systems, DY998) diluted in TBS+ blocking buffer were added to the wells and the plate incubated for 20 min at room temperature. The plate was washed 3× with TBS+ buffer followed by 50 μL of room temperature TMB substrate (Sigma, T4444) added to each well in the dark and the plate incubated for 25 min at room temperature. 25 μL of 1.0 M phosphoric acid was added as a stop solution and the plates were read at 450 nm using a Spectramax plate reader.

[4] = target: T4, Recombinant human integrin αVβ8 (Homo sapiens, UniProt P06756+P26012); assay: Solid Phase Receptor Assay for αVβ8 function; conditions: plate-bound human LAP; read-out: αVβ8 SPRA IC50
T4 construct: purchased R&D Systems 4135-AV
T4 sequence (P06756 31-992 limits assumed): as the sequence (P06756 31-992 limits assumed) above
T4 sequence (P26012 43-684 limits assumed): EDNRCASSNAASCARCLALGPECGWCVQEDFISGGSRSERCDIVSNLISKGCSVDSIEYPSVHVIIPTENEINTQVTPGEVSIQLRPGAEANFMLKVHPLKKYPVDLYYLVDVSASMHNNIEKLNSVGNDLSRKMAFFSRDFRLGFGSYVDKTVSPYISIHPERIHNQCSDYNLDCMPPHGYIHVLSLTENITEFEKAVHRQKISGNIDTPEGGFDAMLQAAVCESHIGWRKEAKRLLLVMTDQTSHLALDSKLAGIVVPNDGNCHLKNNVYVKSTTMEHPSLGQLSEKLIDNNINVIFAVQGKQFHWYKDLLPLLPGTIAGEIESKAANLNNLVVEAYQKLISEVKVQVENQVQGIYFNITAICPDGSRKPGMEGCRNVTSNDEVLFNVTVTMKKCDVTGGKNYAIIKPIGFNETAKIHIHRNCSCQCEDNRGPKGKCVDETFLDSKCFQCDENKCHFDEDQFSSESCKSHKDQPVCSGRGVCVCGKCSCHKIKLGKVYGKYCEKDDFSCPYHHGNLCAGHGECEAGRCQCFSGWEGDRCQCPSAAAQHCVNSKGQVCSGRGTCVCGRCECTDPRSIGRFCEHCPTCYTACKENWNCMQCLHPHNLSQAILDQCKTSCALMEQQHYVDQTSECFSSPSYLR
Experimental: F. Solid Phase Receptor Assay (SFRA) for αVβ8 Function
Wells were washed 3 times with 150 μL TBS+ and then 150 μL of blocking buffer (TBS+ with 1% bovine serum albumin, Sigma A7906) was added. The plate was incubated for 1 hr at 37° C. and then washed 3× with TBS+. […] Compounds were diluted to 20 μM and 1 μL was added to each well of the plate according to a standard template with each sample repeated in triplicate. After incubation for two hours at room temperature, the plate was washed 3× with 150 μL of TBS+. To each well, 50 μL of biotinylated anti-αV antibody (R&D Systems, BAF1219) at 1 μg/mL in TBS+/0.1% BSA were added and the plate was covered and incubated for 1 hr at room temperature. After washing the plate 3× with 150 μL of TBS+ buffer, 50 μL of streptavidin-conjugated horseradish peroxidase (R&D Systems, DY998) diluted in TBS+ blocking buffer were added to the wells and the plate incubated for 20 min at room temperature. The plate was washed 3× with TBS+ followed by 50 μL of TMB substrate (Sigma T4444) added to each well in the dark and the plate incubated for 10 min at room temperature. 25 μL of 1.0 M phosphoric acid was added as a stop solution and the plates were read at 450 nm using a Spectramax plate reader.

T1 sequence (P06756 31-992 limits assumed): as the sequence (P06756 31-992 limits assumed) above
T1 sequence (P18084 24-719 limits assumed): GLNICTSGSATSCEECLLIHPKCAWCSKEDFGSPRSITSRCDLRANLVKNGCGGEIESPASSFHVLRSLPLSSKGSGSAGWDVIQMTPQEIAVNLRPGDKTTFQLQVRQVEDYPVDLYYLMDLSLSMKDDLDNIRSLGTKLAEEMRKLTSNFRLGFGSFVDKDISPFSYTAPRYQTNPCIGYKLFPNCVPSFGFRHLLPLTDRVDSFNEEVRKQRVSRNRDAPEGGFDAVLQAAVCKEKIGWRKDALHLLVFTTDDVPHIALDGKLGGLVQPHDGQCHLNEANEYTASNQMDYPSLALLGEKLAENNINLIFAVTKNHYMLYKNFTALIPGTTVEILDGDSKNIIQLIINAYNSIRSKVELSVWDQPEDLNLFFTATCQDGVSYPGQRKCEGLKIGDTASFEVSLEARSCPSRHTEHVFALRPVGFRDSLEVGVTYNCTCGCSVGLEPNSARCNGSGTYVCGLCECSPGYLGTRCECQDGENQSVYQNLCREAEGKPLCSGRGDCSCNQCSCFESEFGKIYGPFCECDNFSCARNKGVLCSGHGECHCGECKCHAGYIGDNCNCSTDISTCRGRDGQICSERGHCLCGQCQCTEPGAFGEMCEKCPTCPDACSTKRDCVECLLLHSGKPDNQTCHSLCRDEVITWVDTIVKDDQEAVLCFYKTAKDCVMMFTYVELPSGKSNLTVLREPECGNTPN

SMILES | IC50 [1] | IC50 [2] | IC50 [3] | IC50 [4]
COc1ccc(S(F)(F)(F)(F)F)cc1C(CC(=O)O)Cc1cc(OCCc2ccc3c(n2)NCCC3)n(C)n1 (stereo not drawn) [Example 24, 3-[2-methoxy-5-(pentafluoro-sulfanyl)phenyl]-4-[1-methyl-5-[2-(5,6,7,8-tetrahydro-1,8-naphthyridin-2-yl)ethoxy]pyrazol-3-yl]butanoic acid] | 96 nM | 9 nM | 25 nM | 33 nM
COc1c(C(C)C)cc(C(CC(=O)O)Cc2cc(OCCc3ccc4c(n3)NCCC4)n(C)n2)cc1C(C)C (stereo not drawn) [Example 25, 3-(3,5-diisopropyl-4-methoxy-phenyl)-4-[1-methyl-5-[2-(5,6,7,8-tetrahydro-1,8-naphthyridin-2-yl)ethoxy]pyrazol-3-yl]butanoic acid] | 78 nM | 6 nM | 2 nM | 18 nM
COc1c(C(C)C)cc(C(CC(=O)O)Cc2csc(CCCc3ccc4c(n3)NCCC4)n2)cc1C(C)C (stereo not drawn) [Example 26, 3-(3,5-diisopropyl-4-methoxy-phenyl)-4-[2-[3-(5,6,7,8-tetrahydro-1,8-naphthyridin-2-yl)propyl]thiazol-4-yl]butanoic acid] | 610 nM | 8 nM | 61 nM | 38 nM
CC(C)(C)c1cc(C(CC(=O)O)Cc2csc(CCCc3ccc4c(n3)NCCC4)n2)cc(C(C)(C)C)c1 (stereo not drawn) [Example 27, 3-(3,5-di-tert-butylphenyl)-4-(2-(3-(5,6,7,8-tetrahydro-1,8-naphthyridin-2-yl)propyl)thiazol-4-yl)butanoic acid] | 1100 nM | 11 nM | 43 nM | 55 nM
COc1ccc(C(C)(C)C)cc1C(CC(=O)O)Cc1csc(CCCc2ccc3c(n2)NCCC3)n1 (stereo not drawn) [Example 28, 3-(5-(tert-butyl)-2-methoxyphenyl)-4-(2-(3-(5,6,7,8-tetrahydro-1,8-naphthyridin-2-yl)propyl)thiazol-4-yl)butanoic acid] | 440 nM | 6 nM | 25 nM | 31 nM
COc1c(C(C)(C)C)cc(C(CC(=O)O)Cc2csc(CCCc3ccc4c(n3)NCCC4)n2)cc1C(C)(C)C (stereo not drawn) [Example 29, 3-(3,5-di-tert-butyl-4-methoxyphenyl)-4-(2-(3-(5,6,7,8-tetrahydro-1,8-naphthyridin-2-yl)propyl)thiazol-4-yl)butanoic acid] | 800 nM | 7 nM | 40 nM | 87 nM
CC(C)(C)c1cc(C(CC(=O)O)Cc2csc(CCCc3ccc4c(n3)NCCC4)n2)cc(C2(C(F)F)CC2)c1 (stereo not drawn) [Example 30, 3-[3-tert-butyl-5-[1-(difluoromethyl)cyclopropyl]phenyl]-4-[2-[3-(5,6,7,8-tetrahydro-1,8-naphthyridin-2-yl)propyl]thiazol-4-yl]butanoic acid] | 260 nM | 5 nM | 30 nM | 25 nM
CC(C)(C)c1cc(C(CC(=O)O)Cc2csc(CCCc3ccc4c(n3)NCCC4)n2)cc(C(C)(C)C(F)(F)F)c1 (stereo not drawn) [Example 31, 3-[3-tert-butyl-5-(2,2,2-trifluoro-1,1-dimethyl-ethyl)phenyl]-4-[2-[3-(5,6,7,8-tetrahydro-1,8-naphthyridin-2-yl)propyl]thiazol-4-yl]butanoic acid] | 1500 nM | 8 nM | 66 nM | 76 nM
COCC1(c2cc(C(CC(=O)O)Cc3csc(CCCc4ccc5c(n4)NCCC5)n3)cc(C(C)(C)C)c2)CCOCC1 (stereo not drawn) [Example 32, 3-[3-tert-butyl-5-[4-(methoxymethyl)tetrahydropyran-4-yl]phenyl]-4-[2-[3-(5,6,7,8-tetrahydro-1,8-naphthyridin-2-yl)propyl]thiazol-4-yl]butanoic acid] | 240 nM | 7 nM | 37 nM | 14 nM
CC(C)(C)c1ccc(C#N)c(C(CC(=O)O)Cc2csc(CCCc3ccc4c(n3)NCCC4)n2)c1 (stereo not drawn) [Example 33, 3-(5-tert-butyl-2-cyano-phenyl)-4-[2-[3-(5,6,7,8-tetrahydro-1,8-naphthyridin-2-yl)propyl]thiazol-4-yl]butanoic acid] | 32 nM | 2 nM | 0.7 nM | 8 nM
CC(C)(C)c1ccc(Br)c(C(CC(=O)O)Cc2csc(CCCc3ccc4c(n3)NCCC4)n2)c1 (stereo not drawn) [Example 34] | 360 nM | 4 nM | 69 nM | 140 nM
COc1ccc(C(F)(F)F)cc1C(CC(=O)O)Cc1csc(CCCc2ccc3c(n2)NCCC3)n1 (stereo not drawn) [Example 35, 3-[2-methoxy-5-(trifluoromethyl)phenyl]-4-[2-[3-(5,6,7,8-tetrahydro-1,8-naphthyridin-2-yl)propyl]thiazol-4-yl]butanoic acid] | 69 nM | 5 nM | 88 nM | 51 nM
COc1ccc(C2(C(F)F)CC2)cc1C(CC(=O)O)Cc1csc(CCCc2ccc3c(n2)NCCC3)n1 (stereo not drawn) [Example 36, 3-(5-(1-(difluoromethyl)cyclopropyl)-2-methoxyphenyl)-4-(2-(3-(5,6,7,8-tetrahydro-1,8-naphthyridin-2-yl)propyl)thiazol-4-yl)butanoic acid] | 150 nM | 2 nM | 7 nM | 29 nM
COc1ccc(C2=CCOCC2)cc1C(CC(=O)O)Cc1csc(CCCc2ccc3c(n2)NCCC3)n1 (stereo not drawn) [Example 37, 3-[5-(3,6-dihydro-2H-pyran-4-yl)-2-methoxy-phenyl]-4-[2-[3-(5,6,7,8-tetrahydro-1,8-naphthyridin-2-yl)propyl]thiazol-4-yl]butanoic acid] | 37 nM | 3 nM | 25 nM | 83 nM
COc1ccc(C2=CCOCC2)cc1[C@H](CC(=O)O)Cc1csc(CCCc2ccc3c(n2)NCCC3)n1 [Example 37A, (S)-3-(5-(3,6-dihydro-2H-pyran-4-yl)-2-methoxyphenyl)-4-(2-(3-(5,6,7,8-tetrahydro-1,8-naphthyridin-2-yl)propyl)thiazol-4-yl)butanoic acid trifluoroacetate] | 31 nM | 0.9 nM | 17 nM | 43 nM
